Results: PMC8079033, “Design, synthesis, anticancer evaluation, and molecular modelling studies of novel tolmetin derivatives as potential VEGFR-2 inhibitors and apoptosis inducers” (Journal of Enzyme Inhibition and Medicinal Chemistry, 2021)

Tests used:
ACHN = test: NCI 60-cell line one-dose antiproliferative screen (SRB); type: cell-based; conditions: Homo sapiens, read-out: growth inhibition % (GI%)
Procedure: (§1) Anticancer activity screening of the newly synthesised compounds was measured in vitro utilising 60 different human tumour cell lines provided by US National Cancer Institute according to previously reported standard procedure[41–43] as follows: Cells are inoculated into 96-well microtiter plates in 100 ml. After cell inoculation, the microtiter plates are incubated at 37 °C, 5% CO2, 95% air, and 100% relative humidity for 24 h prior to addition of experimental compounds. After 24 h, two plates of each cell line are fixed in situ with TCA, to represent a measurement of the cell population for each cell line at the time of compound addition (Tz). Experimental compounds are solubilised in dimethyl sulfoxide at 400-fold the desired final maximum test concentration and stored frozen prior to use. At the time of compound addition, an aliquot of frozen concentrate is thawed and diluted to twice the desired final maximum test concentration with a complete medium containing […] gentamicin. Aliquots of […] of the compounds dilutions are added to the appropriate microtiter wells already containing 100 ml of medium, resulting in the required final compound concentration. Following compound addition, the plates are incubated for an additional 48 h at 37 °C, 5% CO2, 95% air, and 100% relative humidity. For adherent cells, the assay is terminated by the addition of cold trichloroacetic acid (TCA). Cells are fixed in situ by the gentle addition of 50 ml of cold 50% (w/v) TCA (final concentration, 10% TCA) and incubated for […] at 4 °C. The supernatant is discarded, and the plates are washed five times with tap water and air-dried. Sulforhodamine B (SRB) solution (100 ml) at 0.4% (w/v) in 1% acetic acid is added to each well, and plates are incubated for 10 min at room temperature. After staining, the unbound dye is removed by washing five times with 1% acetic acid and the plates are air-dried. The bound stain is subsequently solubilised with a 10 mM trizma base, and the absorbance is read on an automated plate reader at a wavelength of 515 nm. For suspension cells, the methodology is the same except that the assay is terminated by fixing settled cells at the bottom of the wells by gently adding 50 ml of 80% TCA (final concentration, 16% TCA). Using the absorbance measurements [time zero, (Tz), control growth, (C), and test growth in the presence of compound (Ti)], the percentage growth is calculated for each compound. The One-dose data are reported as a mean graph of the percent growth of treated cells. The reported number is growth relative to the no-compound control, and relative to the time zero number of cells. This allows the detection of both growth inhibition and lethality.
(§2) Fifteen newly synthesised compounds were tested for their in vitro antiproliferative activity by the National Cancer Institute (NCI), Maryland, USA[50], under the Developmental Therapeutic Program (DTP)[41]^,[43]^,[51]^,[52]. The tested compounds were evaluated at a concentration of 10 µM on a panel of 60 tumour cell lines representing leukaemia and non-small cell lung, colon, CNS, melanoma, ovarian, renal, prostate, and breast cancers. The antiproliferative activity was presented by the NCI as percent growth of the treated cells and is presented in Table 1 as growth inhibition percentage (GI%) achieved by the tested compounds.

CAKI-1 = test: as above; type: cell-based; conditions: Homo sapiens, read-out: growth inhibition % (GI%)
Procedure: as §1, §2

HOP-62 = test: as above; type: cell-based; conditions: Homo sapiens, read-out: growth inhibition % (GI%)
Procedure: as §1, §2

HOP-92 = test: as above; type: cell-based; conditions: Homo sapiens, read-out: growth inhibition % (GI%)
Procedure: as §1, §2

IGROV1 = test: as above; type: cell-based; conditions: Homo sapiens, IGROV-1, read-out: growth inhibition % (GI%)
Procedure: as §1, §2

K-562 = test: as above; type: cell-based; conditions: Homo sapiens, K562, read-out: growth inhibition % (GI%)
Procedure: as §1, §2

LOX IMVI = test: as above; type: cell-based; conditions: Homo sapiens, read-out: growth inhibition % (GI%)
Procedure: as §1, §2

MCF7 = test: as above; type: cell-based; conditions: Homo sapiens, read-out: growth inhibition % (GI%)
Procedure: as §1, §2

MDA-MB-231/ATCC = test: as above; type: cell-based; conditions: Homo sapiens, read-out: growth inhibition % (GI%)
Procedure: as §1, §2

MDA-MB-435 = test: as above; type: cell-based; conditions: Homo sapiens, read-out: growth inhibition % (GI%)
Procedure: as §1, §2

MDA-MB-468 = test: as above; type: cell-based; conditions: Homo sapiens, read-out: growth inhibition % (GI%)
Procedure: as §1, §2

NCI-H226 = test: as above; type: cell-based; conditions: Homo sapiens, read-out: growth inhibition % (GI%)
Procedure: as §1, §2

NCI-H522 = test: as above; type: cell-based; conditions: Homo sapiens, read-out: growth inhibition % (GI%)
Procedure: as §1, §2

NCI/ADR-RES = test: as above; type: cell-based; conditions: Homo sapiens, read-out: growth inhibition % (GI%)
Procedure: as §1, §2

OVCAR-5 = test: as above; type: cell-based; conditions: Homo sapiens, read-out: growth inhibition % (GI%)
Procedure: as §1, §2

OVCAR-8 = test: as above; type: cell-based; conditions: Homo sapiens, read-out: growth inhibition % (GI%)
Procedure: as §1, §2

PC-3 = test: as above; type: cell-based; conditions: Homo sapiens, read-out: growth inhibition % (GI%)
Procedure: as §1, §2

SF-268 = test: as above; type: cell-based; conditions: Homo sapiens, read-out: growth inhibition % (GI%)
Procedure: as §1, §2

SF-295 = test: as above; type: cell-based; conditions: Homo sapiens, read-out: growth inhibition % (GI%)
Procedure: as §1, §2

SF-539 = test: as above; type: cell-based; conditions: Homo sapiens, read-out: growth inhibition % (GI%)
Procedure: as §1, §2

SK-MEL-5 = test: as above; type: cell-based; conditions: Homo sapiens, read-out: growth inhibition % (GI%)
Procedure: as §1, §2

SN 12 C = test: as above; type: cell-based; conditions: Homo sapiens, SN12C, read-out: growth inhibition % (GI%)
Procedure: as §1, §2

SNB-19 = test: as above; type: cell-based; conditions: Homo sapiens, read-out: growth inhibition % (GI%)
Procedure: as §1, §2

SNB-75 = test: as above; type: cell-based; conditions: Homo sapiens, read-out: growth inhibition % (GI%)
Procedure: as §1, §2

SW-620 = test: as above; type: cell-based; conditions: Homo sapiens, read-out: growth inhibition % (GI%)
Procedure: as §1, §2

T-47D = test: as above; type: cell-based; conditions: Homo sapiens, T47D, read-out: growth inhibition % (GI%)
Procedure: as §1, §2

U251 = test: as above; type: cell-based; conditions: Homo sapiens, U-251, read-out: growth inhibition % (GI%)
Procedure: as §1, §2

UACC-62 = test: as above; type: cell-based; conditions: Homo sapiens, read-out: growth inhibition % (GI%)
Procedure: as §1, §2

UO-31 = test: as above; type: cell-based; conditions: Homo sapiens, read-out: growth inhibition % (GI%)
Procedure: as §1, §2

A498 = test: NCI 60-cell line one-dose antiproliferative screen (SRB); type: cell-based; conditions: Homo sapiens, read-out: growth inhibition % (GI%)
Procedure: as §1, §2

A549/ATCC = test: as above; type: cell-based; conditions: Homo sapiens, read-out: growth inhibition % (GI%)
Procedure: as §1, §2

BT-5 = test: as above; type: cell-based; conditions: Homo sapiens, read-out: growth inhibition % (GI%)
Procedure: as §1, §2

EKVX = test: as above; type: cell-based; conditions: Homo sapiens, read-out: growth inhibition % (GI%)
Procedure: as §1, §2

HCT-15 = test: as above; type: cell-based; conditions: Homo sapiens, read-out: growth inhibition % (GI%)
Procedure: as §1, §2

HS 578 T = test: as above; type: cell-based; conditions: Homo sapiens, read-out: growth inhibition % (GI%)
Procedure: as §1, §2

M14 = test: as above; type: cell-based; conditions: Homo sapiens, read-out: growth inhibition % (GI%)
Procedure: as §1, §2

MOLT-4 = test: as above; type: cell-based; conditions: Homo sapiens, read-out: growth inhibition % (GI%)
Procedure: as §1, §2

NCI-H23 = test: as above; type: cell-based; conditions: Homo sapiens, read-out: growth inhibition % (GI%)
Procedure: as §1, §2

RPMI-8226 = test: as above; type: cell-based; conditions: Homo sapiens, read-out: growth inhibition % (GI%)
Procedure: as §1, §2

RXF 393 = test: as above; type: cell-based; conditions: Homo sapiens, read-out: growth inhibition % (GI%)
Procedure: as §1, §2

SMILES | inhibition at 10 µM (ACHN) | inhibition at 10 µM (CAKI-1) | inhibition at 10 µM (HOP-62) | inhibition at 10 µM (IGROV1) | inhibition at 10 µM (LOX IMVI) | inhibition at 10 µM (MCF7) | inhibition at 10 µM (MDA-MB-231/ATCC) | inhibition at 10 µM (MDA-MB-468) | inhibition at 10 µM (NCI-H226) | inhibition at 10 µM (NCI-H522) | inhibition at 10 µM (OVCAR-8) | inhibition at 10 µM (PC-3) | inhibition at 10 µM (SF-268) | inhibition at 10 µM (SF-539) | inhibition at 10 µM (SK-MEL-5) | inhibition at 10 µM (SN 12 C) | inhibition at 10 µM (SNB-19) | inhibition at 10 µM (SNB-75) | inhibition at 10 µM (SW-620) | inhibition at 10 µM (T-47D) | also measured
Cc1ccc(C(=O)c2ccc(CC(=O)NN=C3C(=O)Nc4ccc(OC(F)(F)F)cc43)n2C)cc1 [Compound 6c, 2–(1-Methyl-5–(4-methylbenzoyl)-1H-pyrrol-2-yl)-N′-(2-oxo-5-(trifluoromethoxy)indolin-3-ylidene)acetohydrazide] | < 10% | 12.6% | 11.1% | < 10% | < 10% | < 10% | < 10% | < 10% | < 10% | 11.9% | < 10% | < 10% | < 10% | < 10% | < 10% | < 10% | < 10% | 37.1% | < 10% | < 10% | inhibition at 10 µM (HOP-92): < 10%; inhibition at 10 µM (K-562): < 10%; inhibition at 10 µM (MDA-MB-435): < 10%; inhibition at 10 µM (NCI/ADR-RES): < 10%; inhibition at 10 µM (OVCAR-5): < 10%; inhibition at 10 µM (SF-295): < 10%; inhibition at 10 µM (U251): < 10%; inhibition at 10 µM (UACC-62): < 10%; inhibition at 10 µM (UO-31): 24.3%; melting point: 157 to 159 °C
Cc1ccc(C(=O)c2ccc(CC(=O)NNC(=O)Nc3c(C)cccc3Cl)n2C)cc1 [Compound 8b, N-(2-Chloro-6-methylphenyl)-2–(2-(1-methyl-5–(4-methylbenzoyl)-1H-pyrrol-2-yl)acetyl)hydrazinecarboxamide] | < 10% | 11.3% | < 10% | 11.2% | < 10% | < 10% | < 10% | < 10% | < 10% | < 10% | < 10% | < 10% | < 10% | < 10% | < 10% | < 10% | 16.1% | 27.9% | < 10% | < 10% | inhibition at 10 µM (A498): < 10%; inhibition at 10 µM (A549/ATCC): < 10%; inhibition at 10 µM (BT-5): 12.7%; inhibition at 10 µM (EKVX): < 10%; inhibition at 10 µM (HCT-15): < 10%; inhibition at 10 µM (HS 578 T): < 10%; inhibition at 10 µM (M14): < 10%; inhibition at 10 µM (MOLT-4): < 10%; inhibition at 10 µM (NCI-H23): < 10%; inhibition at 10 µM (RPMI-8226): < 10%; inhibition at 10 µM (RXF 393): < 10%; inhibition at 10 µM (U251): < 10%; inhibition at 10 µM (UACC-62): < 10%; inhibition at 10 µM (UO-31): 26.1%; melting point: 240 to 242 °C
